Measured values reported in ChEMBL document CHEMBL1201862, “PubChem BioAssay data set” (2004).
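Cultured in 96-well plates, cells were exposed to test compound for 48 hours across five concentrations. GI50 is the concentration that inhibits growth by half.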 Activity calls are given as the source filed them. Rule as the data show it: active = GI50 up to about 1.1 µM and inactive = higher.

Tests used:
Test in all cases: inhibition of tumour cell growth, NCI panel, 48 h
NCI-H460 = test system: NCI-H460
SF-268 = test system: SF-268
IGROV-1 = test system: IGROV-1
SNB-19 = test system: SNB-19
SK-MEL-28 = test system: SK-MEL-28
RXF 631 = test system: RXF 631
SF-539 = test system: SF-539
UACC-257 = test system: UACC-257
OVCAR-8 = test system: OVCAR-8
RXF 393 = test system: RXF 393
HCT-116 = test system: HCT-116
SF-295 = test system: SF-295
Malme-3M = test system: Malme-3M
ACHN = test system: ACHN
A549 = test system: A549
LOX IMVI = test system: LOX IMVI
SK-OV-3 = test system: SK-OV-3
DMS-114 = test system: DMS-114
HCC 2998 = test system: HCC 2998
UO-31 = test system: UO-31
CCRF-CEM = test system: CCRF-CEM
XF498 = test system: XF498
OVCAR-5 = test system: OVCAR-5
COLO 205 = test system: COLO 205
M14 = test system: M14
DMS-273 = test system: DMS-273
OVCAR-4 = test system: OVCAR-4
SK-MEL-5 = test system: SK-MEL-5
MOLT-4 = test system: MOLT-4
K562 = test system: K562
HT-29 = test system: HT-29
HOP-18 = test system: HOP-18
HCT-15 = test system: HCT-15
TK-10 = test system: TK-10
SNB-78 = test system: SNB-78
KM12 = test system: KM12
NCI-H23 = test system: NCI-H23
NCI-H226 = test system: NCI-H226
NCI-H522 = test system: NCI-H522
CAKI-1 = test system: CAKI-1
SK-MEL-2 = test system: SK-MEL-2
SW-620 = test system: SW-620
SR = test system: SR
OVCAR-3 = test system: OVCAR-3
A498 = test system: A498
HL-60 = test system: HL-60
U-251 = test system: U-251
786-0 = test system: 786-0
SN12C = test system: SN12C
HOP-62 = test system: HOP-62
LXFL 529 = test system: LXFL 529
M19-MEL = test system: M19-MEL
RPMI-8226 = test system: RPMI-8226
DLD-1 = test system: DLD-1
SNB-75 = test system: SNB-75
EKVX = test system: EKVX
KM-20L2 = test system: KM-20L2
UACC-62 = test system: UACC-62
HOP-92 = test system: HOP-92

Cc1[nH]c2ccccc2c1C(=O)CC1(O)C(=O)Nc2c(Cl)cc(Cl)cc21 (configuration not stated)
GI50 (NCI-H460): 48.9 µM (inactive) | GI50 (SF-268): 25.3 µM (inactive) | GI50 (IGROV-1): 53.1 µM (inactive) | GI50 (SNB-19): 41.3 µM (inactive) | GI50 (SK-MEL-28): 27 µM (inactive) | GI50 (RXF 631): 29.4 µM (inactive) | GI50 (SF-539): 26.4 µM (inactive) | GI50 (UACC-257): 17.2 µM (inactive) | GI50 (OVCAR-8): 24.3 µM (inactive) | GI50 (RXF 393): 22.2 µM (inactive) | GI50 (HCT-116): 35.1 µM (inactive) | GI50 (SF-295): 19.5 µM (inactive) | GI50 (Malme-3M): 18.9 µM (inactive) | GI50 (ACHN): 21.9 µM (inactive) | GI50 (A549): 36.1 µM (inactive) | GI50 (LOX IMVI): 27 µM (inactive) | GI50 (SK-OV-3): 72.3 µM (inactive) | GI50 (DMS-114): 24.3 µM (inactive) | GI50 (HCC 2998): 51.6 µM (inactive) | GI50 (UO-31): 26.3 µM (inactive) | GI50 (CCRF-CEM): 20.3 µM (inactive) | GI50 (XF498): 18.2 µM (inactive) | GI50 (OVCAR-5): 24 µM (inactive) | GI50 (COLO 205): 30.1 µM (inactive) | GI50 (M14): 21.5 µM (inactive) | GI50 (DMS-273): 49.1 µM (inactive) | GI50 (OVCAR-4): 9.75 µM (inactive) | GI50 (SK-MEL-5): 17.2 µM (inactive) | GI50 (MOLT-4): 22.1 µM (inactive) | GI50 (K562): 20.9 µM (inactive) | GI50 (HT-29): 54.3 µM (inactive) | GI50 (HOP-18): 25.6 µM (inactive) | GI50 (HCT-15): 40.5 µM | GI50 (TK-10): 39.4 µM (inactive) | GI50 (SNB-78): 40.7 µM (inactive) | GI50 (KM12): 61.9 µM (inactive) | GI50 (NCI-H23): 19.5 µM (inactive) | GI50 (NCI-H226): 18.8 µM (inactive) | GI50 (NCI-H522): 16.9 µM (inactive) | GI50 (CAKI-1): 40.8 µM (inactive) | GI50 (SK-MEL-2): 28.6 µM (inactive) | GI50 (SW-620): 22.2 µM (inactive) | GI50 (SR): 28.4 µM (inactive) | GI50 (OVCAR-3): 16.6 µM (inactive) | GI50 (A498): 33 µM (inactive) | GI50 (HL-60): 14.6 µM (inactive) | GI50 (U-251): 30.1 µM (inactive) | GI50 (786-0): 26.8 µM (inactive) | GI50 (SN12C): 24.8 µM (inactive) | GI50 (HOP-62): 46.9 µM (inactive) | GI50 (LXFL 529): 16.4 µM (inactive) | GI50 (M19-MEL): 9.31 µM (inactive) | GI50 (RPMI-8226): 25.5 µM (inactive) | GI50 (DLD-1): 44.9 µM (inactive) | GI50 (SNB-75): 27.9 µM (inactive)

CC(=O)/C=C\C(=O)NNS(=O)(=O)c1ccc(C)cc1
GI50 (NCI-H460): > 100 µM (inactive) | GI50 (SF-268): > 100 µM (inactive) | GI50 (IGROV-1): > 100 µM (inactive) | GI50 (SNB-19): > 100 µM (inactive) | GI50 (SK-MEL-28): > 100 µM (inactive) | GI50 (RXF 631): > 100 µM (inactive) | GI50 (SF-539): > 100 µM (inactive) | GI50 (UACC-257): > 100 µM (inactive) | GI50 (OVCAR-8): > 100 µM (inactive) | GI50 (RXF 393): > 100 µM (inactive) | GI50 (HCT-116): > 100 µM (inactive) | GI50 (SF-295): > 100 µM (inactive) | GI50 (Malme-3M): > 100 µM (inactive) | GI50 (ACHN): > 100 µM (inactive) | GI50 (A549): > 100 µM (inactive) | GI50 (LOX IMVI): > 100 µM (inactive) | GI50 (SK-OV-3): > 100 µM (inactive) | GI50 (EKVX): > 100 µM (inactive) | GI50 (HCC 2998): > 100 µM (inactive) | GI50 (UO-31): > 100 µM (inactive) | GI50 (CCRF-CEM): > 100 µM (inactive) | GI50 (XF498): > 100 µM (inactive) | GI50 (OVCAR-5): > 100 µM (inactive) | GI50 (COLO 205): > 100 µM (inactive) | GI50 (M14): > 100 µM (inactive) | GI50 (DMS-273): > 100 µM (inactive) | GI50 (OVCAR-4): > 100 µM (inactive) | GI50 (KM-20L2): > 100 µM (inactive) | GI50 (SK-MEL-5): > 100 µM (inactive) | GI50 (MOLT-4): > 100 µM (inactive) | GI50 (K562): > 100 µM (inactive) | GI50 (UACC-62): > 100 µM (inactive) | GI50 (HT-29): > 100 µM (inactive) | GI50 (HCT-15): > 100 µM | GI50 (TK-10): > 100 µM (inactive) | GI50 (SNB-78): > 100 µM (inactive) | GI50 (KM12): > 100 µM (inactive) | GI50 (NCI-H23): > 100 µM (inactive) | GI50 (NCI-H226): > 100 µM (inactive) | GI50 (NCI-H522): > 100 µM (inactive) | GI50 (CAKI-1): > 100 µM (inactive) | GI50 (SK-MEL-2): > 100 µM (inactive) | GI50 (SW-620): > 100 µM (inactive) | GI50 (SR): > 100 µM (inactive) | GI50 (OVCAR-3): > 100 µM (inactive) | GI50 (A498): > 100 µM (inactive) | GI50 (HL-60): > 100 µM (inactive) | GI50 (U-251): > 100 µM (inactive) | GI50 (786-0): > 100 µM (inactive) | GI50 (SN12C): > 100 µM (inactive) | GI50 (HOP-62): > 100 µM (inactive) | GI50 (LXFL 529): > 100 µM (inactive) | GI50 (M19-MEL): > 100 µM (inactive) | GI50 (RPMI-8226): > 100 µM (inactive) | GI50 (DLD-1): > 100 µM (inactive) | GI50 (HOP-92): > 100 µM (inactive) | GI50 (SNB-75): > 100 µM (inactive)
